Source: patent US20250388592A1 (REMYND N.V., priority 2022, published 2025)

System: M17_3TAU(P301L) cells
Assay: TAU-induced cytotoxicity (LDH) in the neuroblastoma tauopathy model
Type: cell-based
Settings: Homo sapiens, 168 h, inhibition of TAU-induced toxicity, 7 days retinoic acid differentiation, LDH readout
Description: A TAU expression plasmid was constructed by sub-cloning the cDNA encoding for human TAU-P301L protein, wherein proline at position 301 is substituted by a leucine residue, into mammalian expression vector pcDNA3.1 resulting in the plasmid pcDNA3.1-TAUP301L. Plasmids pcDNA3.1 and pcDNA3.1-TAU P301L were transfected into human neuroblastoma cells (BE-M17; ATCC No. CRL-2267™) using lipofectamine reagent and subsequently, independent clonal cell lines with the plasmids stably integrated into the genome were selected by antibiotic resistance selection (Geneticin (G418)), resulting in cell lines M17.pcDNA3 and M17_3TAUP301L. Expression of the TAUP301 L gene in the M17_3TAUP301 L cells was confirmed by Western blot analysis.
Differentiation of the cells with RA leads to phosphorylation and subsequent aggregation of TAU, inducing a tauopathy in these cells. Cytotoxicity of cells was measured by quantification of lactate dehydrogenase (LDH) levels. In dead cells LDH is leaked out of the cells into the medium due to a loss of plasma-membrane integrity.
Briefly, 3 days preceding the experiment pre-cultures of M17.pcDNA3 and M17_3TAU(P301L) cells were prepared, starting from a stock culture, at a density of 50.000-100.000 cells/cm2 in detection medium (Optimem Reduced Serum without phenol red (Gibco, Cat. 31985-047) supplemented with 1% fetal calf serum (FCS), 1 mM sodium pyruvate, 1×non-essential amino acids (NEAA), 500 μg/ml G418 and 0.5×antibiotic/antimycotic (ABAM)). At the day of the experiment these precultures were diluted to ˜[…] in detection medium without FCS and 60 μL of this suspension is dispensed per well into a 96-well microtiter plate. After 3 hours of incubation at 37° C./5% C02 an equal volume of detection medium containing 2.5 μM RA was added and subsequently incubated for 7 days at 37° C./5% CO2. After 7 days, LDH activity was determined using the Promega Cytotox 96 Non-Radioactive cytotoxicity assay (Cat. G1780), according the manufacturer's instructions. Cytotoxicity is measured as the ratio of LDH increase in the supernatant divided by the LDH increase in the total cell suspension (sum of the LDH measured in cells and supernatant). Toxicity was determined after 7 days of differentiation with retinoic acid in M17_3TAU(P301 L) cells compared to M17.pcDNA3 cells.
The M17_3TAU(P301L) cell line makes it possible to assess the ability of novel compounds to inhibit TAU-induced cytotoxicity. […] Compounds were tested for their ability to hamper TAU-induced toxicity at different concentrations, ranging from low non-effective concentrations to high potent concentrations. Afterwards, the dose-dependent inhibition curve was used to calculate their EC50 (Table 3B).

Point of comparison: Cn1ccnc1CN1CC2(C1)CN(C(=O)Cc1ccc(F)cc1)C2 [Cpd B020, 2-(4-Fluoro-phenyl)-1-[6-(1-methyl-1H-imidazol-2-ylmethyl)-2,6-diaza-spiro[3.3]hept-2-yl]-ethanone], EC50 422 nM. Against it:
- O=C(Cc1ccc(F)cc1)N1CC2(CN(CCCc3ccccc3)C2)C1 [Cpd B001, 2-(4-fluorophenyl)-1-(6-(3-phenylpropyl)-2,6-diazaspiro[3.3]heptan-2-yl)ethanone] — 39-fold lower, 10.7 nM
- O=C(Cc1ccc(F)cc1)N1CC2(CN(Cc3ccccc3)C2)C1 [Cpd B002, 1-(6-benzyl-2,6-diazaspiro[3.3]heptan-2-yl)-2-(4-fluorophenyl)ethanone] — 44-fold lower, 9.52 nM
- O=C(Cc1ccc(Cl)cc1)N1CC2(CN(Cc3ccccc3)C2)C1 [Cpd B003, 1-(6-benzyl-2,6-diazaspiro[3.3]heptan-2-yl)-2-(4-chlorophenyl)ethanone] — 61-fold lower, 6.97 nM
- O=C(Cc1ccc(Cl)cc1)N1CC2(CN(Cc3ccc(Cl)cc3)C2)C1 [Cpd B004, 1-(6-(4-chlorobenzyl)-2,6-diazaspiro[3.3]heptan-2-yl)-2-(4-chlorophenyl)ethanone] — 150-fold lower, 2.86 nM
- COc1cc(CN2CC3(C2)CN(C(=O)Cc2ccc(Cl)cc2)C3)ccn1 [Cpd B005, 2-(4-chlorophenyl)-1-(6-((2-methoxypyridin-4-yl)methyl)-2,6-diazaspiro[3.3]heptan-2-yl)ethanone] — 2.6-fold lower, 162 nM
- Cc1ccccc1CN1CC2(C1)CN(C(=O)Cc1ccc(Cl)cc1)C2 [Cpd B006, 2-(4-chlorophenyl)-1-(6-(2-methylbenzyl)-2,6-diazaspiro[3.3]heptan-2-yl)ethanone] — 150-fold lower, 2.91 nM
- O=C(Cc1ccc(F)c(F)c1)N1CC2(CN(Cc3ccccc3)C2)C1 [Cpd B007, 1-(6-benzyl-2,6-diazaspiro[3.3]heptan-2-yl)-2-(3,4-difluorophenyl)ethanone] — 100-fold lower, 4.16 nM
- COc1cccc(CN2CC3(C2)CN(C(=O)Cc2ccc(F)cc2)C3)c1 [Cpd B008, 2-(4-Fluoro-phenyl)-1-[6-(3-methoxy-benzyl)-2,6-diaza-spiro[3.3]hept-2-yl]-ethanone] — 110-fold lower, 4 nM
- Cc1ccc(CN2CC3(C2)CN(C(=O)Cc2ccc(F)cc2)C3)cc1 [Cpd B009, 2-(4-Fluoro-phenyl)-1-[6-(4-methyl-benzyl)-2,6-diaza-spiro[3.3]hept-2-yl]-ethanone] — 400-fold lower, 1.06 nM
- O=C(Cc1ccc(F)cc1)N1CC2(CN(Cc3ccccn3)C2)C1 [Cpd B010, 2-(4-Fluoro-phenyl)-1-(6-pyridin-2-ylmethyl-2,6-diaza-spiro[3.3]hept-2-yl)-ethanone] — 8.9-fold lower, 47.5 nM
- O=C(Cc1ccc(F)cc1)N1CC2(CN(Cc3cccc(Cl)c3)C2)C1 [Cpd B011, 1-[6-(3-Chloro-benzyl)-2,6-diaza-spiro[3.3]hept-2-yl]-2-(4-fluoro-phenyl)-ethanone] — 200-fold lower, 2.07 nM
- NC(=O)c1cccc(CN2CC3(C2)CN(C(=O)Cc2ccc(F)cc2)C3)c1 [Cpd B012, 3-{6-[2-(4-Fluoro-phenyl)-acetyl]-2,6-diaza-spiro[3.3]hept-2-ylmethyl}-benzamide] — 9.3-fold lower, 45.2 nM
- O=C(Cc1ccc(F)cc1)N1CC2(CN(Cc3ccccc3OC(F)(F)F)C2)C1 [Cpd B013, 2-(4-Fluoro-phenyl)-1-[6-(2-trifluoromethoxy-benzyl)-2,6-diaza-spiro[3.3]hept-2-yl]-ethanone] — 67-fold lower, 6.27 nM
- COC(=O)c1ccc(CN2CC3(C2)CN(C(=O)Cc2ccc(F)cc2)C3)cc1 [Cpd B014, 4-{6-[2-(4-Fluoro-phenyl)-acetyl]-2,6-diaza-spiro[3.3]hept-2-ylmethyl}-benzoic acid methyl ester] — 460-fold lower, 0.92 nM
- CC(c1cccc(C(F)(F)F)c1)N1CC2(CN(C(=O)Cc3ccc(F)cc3)C2)C1 (stereo not shown) [Cpd B015, 2-(4-Fluoro-phenyl)-1-{6-[1-(3-trifluoromethyl-phenyl)-ethyl]-2,6-diaza-spiro[3.3]hept-2-yl}-ethanone] — 44-fold lower, 9.54 nM
- CC(c1ccccc1)N1CC2(CN(C(=O)Cc3ccc(F)cc3)C2)C1 (stereo not shown) [Cpd B016, 2-(4-Fluoro-phenyl)-1-[6-(1-phenyl-ethyl)-2,6-diaza-spiro[3.3]hept-2-yl]-ethanone] — 77-fold lower, 5.51 nM
- Cc1cccc(CN2CC3(C2)CN(C(=O)Cc2ccc(F)cc2)C3)n1 [Cpd B017, 2-(4-Fluoro-phenyl)-1-[6-(6-methyl-pyridin-2-ylmethyl)-2,6-diaza-spiro[3.3]hept-2-yl]-ethanone] — 16-fold lower, 26.7 nM
- O=C(Cc1ccc(F)cc1)N1CC2(CN(Cc3ccccc3Cl)C2)C1 [Cpd B018, 1-[6-(2-Chloro-benzyl)-2,6-diaza-spiro[3.3]hept-2-yl]-2-(4-fluoro-phenyl)-ethanone] — 440-fold lower, 0.97 nM
- Cc1nc(CN2CC3(C2)CN(C(=O)Cc2ccc(F)cc2)C3)cs1 [Cpd B019, 2-(4-Fluoro-phenyl)-1-[6-(2-methyl-thiazol-4-ylmethyl)-2,6-diaza-spiro[3.3]hept-2-yl]-ethanone] — 5.9-fold lower, 71.8 nM
- Cc1cc(CN2CC3(C2)CN(C(=O)Cc2ccc(F)cc2)C3)no1 [Cpd B021, 2-(4-Fluoro-phenyl)-1-[6-(5-methyl-isoxazol-3-ylmethyl)-2,6-diaza-spiro[3.3]hept-2-yl]-ethanone] — 2.5-fold lower, 167 nM
- O=C(Cc1ccc(F)cc1)N1CC2(CN(Cc3cscn3)C2)C1 [Cpd B022, 2-(4-Fluoro-phenyl)-1-(6-thiazol-4-ylmethyl-2,6-diaza-spiro[3.3]hept-2-yl)-ethanone] — 2.8-fold lower, 149 nM
- O=C(Cc1ccc(F)cc1)N1CC2(CN(CCc3cccc(C(F)(F)F)c3)C2)C1 [Cpd B023, 2-(4-Fluoro-phenyl)-1-{6-[2-(3-trifluoromethyl-phenyl)-ethyl]-2,6-diaza-spiro[3.3]hept-2-yl}-ethanone] — 23-fold lower, 18.6 nM
- O=C(Cc1ccc(F)cc1)N1CC2(CN(CCc3cccc(F)c3)C2)C1 [Cpd B024, 2-(4-Fluoro-phenyl)-1-{6-[2-(3-fluoro-phenyl)-ethyl]-2,6-diaza-spiro[3.3]hept-2-yl}-ethanone] — 16-fold lower, 26.7 nM
- COc1ccc(CCN2CC3(C2)CN(C(=O)Cc2ccc(F)cc2)C3)cc1 [Cpd B025, 2-(4-Fluoro-phenyl)-1-{6-[2-(4-methoxy-phenyl)-ethyl]-2,6-diaza-spiro[3.3]hept-2-yl}-ethanone] — 24-fold lower, 17.9 nM
- Cc1ccc(CCN2CC3(C2)CN(C(=O)Cc2ccc(F)cc2)C3)cc1 [Cpd B026, 2-(4-Fluoro-phenyl)-1-[6-(2-p-tolyl-ethyl)-2,6-diaza-spiro[3.3]hept-2-yl]-ethanone] — 16-fold lower, 26.1 nM
- O=C(Cc1ccc(F)cc1)N1CC2(CN(CCc3ccc(F)cc3)C2)C1 [Cpd B027, 2-(4-Fluoro-phenyl)-1-{6-[2-(4-fluoro-phenyl)-ethyl]-2,6-diaza-spiro[3.3]hept-2-yl}-ethanone] — 19-fold lower, 21.7 nM
- Cc1cccc(CCN2CC3(C2)CN(C(=O)Cc2ccc(F)cc2)C3)c1 [Cpd B028, 2-(4-Fluoro-phenyl)-1-[6-(2-m-tolyl-ethyl)-2,6-diaza-spiro[3.3]hept-2-yl]-ethanone] — 33-fold lower, 12.9 nM
- CC(C)(C(=O)c1ccccc1)N1CC2(CN(C(=O)Cc3ccc(F)cc3)C2)C1 [Cpd B029, 2-{6-[2-(4-Fluoro-phenyl)-acetyl]-2,6-diaza-spiro[3.3]hept-2-yl}-2-methyl-1-phenyl-propan-1-one] — 51-fold lower, 8.3 nM
- O=C(Cc1ccc(F)cc1)N1CC2(CN(CCc3ccccc3)C2)C1 [Cpd B030, 2-(4-Fluoro-phenyl)-1-(6-phenethyl-2,6-diaza-spiro[3.3]hept-2-yl)-ethanone] — 11-fold lower, 37.7 nM
- COc1cccc(CN2CC3(C2)CN(C(=O)Cc2ccc(Cl)cc2)C3)c1 [Cpd B031, 2-(4-chlorophenyl)-1-(6-(3-methoxybenzyl)-2,6-diazaspiro[3.3]heptan-2-yl)ethanone] — 210-fold lower, 2.01 nM
- O=C(Cc1ccc(Cl)cc1)N1CC2(CN(Cc3ccccn3)C2)C1 [Cpd B032, 2-(4-chlorophenyl)-1-(6-(pyridin-2-ylmethyl)-2,6-diazaspiro[3.3]heptan-2-yl)ethanone] — 8.7-fold lower, 48.5 nM
- O=C(Cc1ccc(Cl)cc1)N1CC2(CN(Cc3cccc(Cl)c3)C2)C1 [Cpd B033, 1-(6-(3-chlorobenzyl)-2,6-diazaspiro[3.3]heptan-2-yl)-2-(4-chlorophenyl)ethanone] — 170-fold lower, 2.46 nM
- O=C(Cc1ccc(Cl)cc1)N1CC2(CN(Cc3ccccc3OC(F)(F)F)C2)C1 [Cpd B034, 2-(4-chlorophenyl)-1-(6-(2-(trifluoromethoxy)benzyl)-2,6-diazaspiro[3.3]heptan-2-yl)ethanone] — 70-fold lower, 6.04 nM
